The test system of this assay is rats exposed to 8-12 kHz band noise for 24 hours at 110 dB SPL. The experiment in a line: ABR threshold recovery after prolonged (24 hours) noise exposure, systemic ADAC (Experiment 1). The class given is in vivo, Wistar rats. The settings on record: for recovery of ABR thresholds: 24 h noise 110 dB SPL. The protocol: In Experiments 1 and 2, Wistar rats were exposed to noise (8-12 kHz, 110 dB SPL for 2-24 hours). ADAC was then administered to the Wistar rats at 100 μg/kg/day. The ADAC was either administered as a single injection 6 hours after noise exposure, or as a single injection 24 hours after noise exposure, or as multiple injections, with the first injection of the multiple injections being administered 6 hours after noise exposure.
Hearing thresholds were assessed using auditory brainstem responses (ABRs) and the cellular damage was evaluated by quantitative histology (hair cell loss). ABR represents the activity of the auditory nerve and the central auditory pathways (brainstem/mid-brain regions) responding to the sound (clicks or pure tones). Nitrotyrosine marker was used for the immunohistochemical assessment of free radical damage.
Adenosine amine congener (ADAC) was obtained from Dr Ken Jacobson (NIH, Bethesda, USA). ADAC ([…]) was dissolved first in 100 μL of 1N HCl and then in 50 ml of 0.1 M PBS (pH 7.4), making a 50 μg/mL stock solution. This solution was aliquoted at 1 mL in eppendorf tubes, and stored at −20° C. for later use. When required, the ADAC aliquots were heated in a 37° C. water bath for 30 minutes before administration. ADAC injection dose was […] given intraperitoneally, 200 μl/100 g body weight.
The rats were exposed to 8-12 kHz band noise presented for 24 hours at 110 dB SPL. This was done in a custom built acoustic chamber (Shelburg Acoustics, Sydney, Australia) with internal speakers and external controls (sound generator and frequency selector). Sound intensity inside the chamber was tested using a calibrated Rion NL-40 sound level meter to ensure minimal deviations of sound intensity (110±1 dB SPL). Up to 4 rats were placed in the chamber in a standard rat cage. They were introduced to the sound chamber at 1 hour intervals so that the timing of subsequent ABRs could be kept consistent for all rats.
ABR represents the activity of the auditory nerve and the central auditory pathways (brainstem/mid-brain regions) responding to the sound (clicks or pure tones). ABRs were obtained by placing fine platinum electrodes subdermally at the mastoid region of the ear of interest (active electrode), scalp vertex (reference) and mastoid region of the opposite ear (ground electrode). A series of auditory clicks or pure tones (4-28 kHz) presented at varying intensity and thresholds generate electrical activity reflecting differing levels of auditory processing. The sound threshold of the ABR complex (waves I-IV) were determined by progressively attenuating the sound intensity until the waveform can no longer be observed.
The acoustic stimuli for ABR were produced and the responses recorded using a Tucker-Davis Technologies auditory physiology workstation (Alachua, Fla., USA).
All ABR measurements were performed in a sound attenuator chamber (Shelburg Acoustics, Sydney, Australia). Rats were anaesthetised with the mixture of Ketamine (75 mg/kg) and Xylazine (10 mg/kg) intraperitoneally, and then placed onto a heating pad, to maintain body temperature at 37° C. ABR potentials were evoked with digitally produced 5 ms tone pips (0.5 ms rise-fall time) at frequencies between 4 and 28 kHz in half-octave steps. Sound pressure level (SPL) was raised in 5 dB steps starting from 10 dB below threshold level to 90 dB SPL. Responses were averaged at each sound level (1024 repeats with stimulus polarity alternated), and response waveforms were discarded when peak-to-peak amplitude exceeded 15 μV. The ABR threshold was defined as the lowest intensity (to the nearest 5 dB) at which a response could be visually detected above the noise floor.
ABR thresholds were measured before and after noise exposure, and after ADAC/vehicle treatment. Post-noise ABR recordings were obtained 1 hour before the rats received their first ADAC or vehicle injection. […]

Molecules are shown by their SMILES. A value given as a limit tells only on which side of the number the result lay.

`NCCNC(=O)Cc1ccc(NC(=O)Cc2ccc(Nc3ncnc4c3ncn4[C@@H]3O[C@H](CO)[C@@H](O)[C@H]3O)cc2)cc1` [ADAC, adenosine amine congener]: the “effect on threshold recovery” value (ADAC administration 24 hours after noise exposure, FIG. 3) is “less pronounced”. In addition, the “recovery of ABR thresholds at all pure tone frequencies” value (chronic treatment (5 days, five injections every 24 hours commencing 6 hours post-noise), 100 μg/kg i.p.) is 22-28 dB. In addition, for the setting “group that received multiple injections of ADAC (FIGS. 4 and 5), follows sentence on auditory clicks”, the “highest recovery of ABR thresholds (mean ± SEM)” value was determined as 29 dB. Further, the “best recovery of hearing thresholds” value (prolonged ADAC treatment (5 injections), FIG. 4) is reported as below 25 dB. The “lowest recovery of ABR thresholds (mean ± SEM)” value (single ADAC injection 24 hours after noise exposure (FIGS. 3 and 5), follows sentence on auditory clicks) was 8±2 dB. In addition, the “recovery of ABR thresholds” value is on record as 5-12 dB (single injection ADAC 100 μg/kg i.p. 24 hours after noise exposure) and 17-26 dB (single injection ADAC 100 μg/kg i.p., early treatment 6 hours after noise). In addition, where the note is “single injection of ADAC 6 hours after noise exposure, pure tones and auditory clicks, p<0.05, p<0.01”, the “threshold recovery versus control group” value is reported as “statistically significant difference between the groups in the level of recovery”.
